In ChEMBL document CHEMBL3124777, “Synthesis and biological evaluation of thiazoline derivatives as new antimicrobial and anticancer agents” (Eur J Med Chem, 2014):
In brackets after ≈: the same amount, converted by molar mass. Activity calls are given as the source filed them. No cut-off for these calls is given here.

Columns and labels:
Pseudomonas aeruginosa = assay: Antimicrobial activity against Pseudomonas aeruginosa […] after 18 to 24 hrs by microbroth dilution method; assay type: functional
C6 [1] = assay: Cytotoxicity against rat C6 cells assessed as cell viability at 6 ug/ml after 24 hrs by MTT assay relative to control; assay type: functional; conditions: C6, 24 h, read-out: Activity
C6 [2] = assay: Cytotoxicity against rat C6 cells assessed as cell viability at 100 ug/ml after 24 hrs by MTT assay relative to control; assay type: functional; conditions: C6, 24 h, read-out: Activity
C6 [3] = assay: Cytotoxicity against rat C6 cells after 24 hrs by MTT assay; assay type: functional, cell-based; conditions: C6, 24 h
C6 [4] = assay: Cytotoxicity against rat C6 cells assessed as cell viability at 50 ug/ml after 24 hrs by MTT assay relative to control; assay type: functional; conditions: C6, 24 h, read-out: Activity
Listeria monocytogenes = assay: Antimicrobial activity against Listeria monocytogenes ATCC 7644 after 18 to 24 hrs by microbroth dilution method; assay type: functional
Aspergillus ochraceus = assay: Antimicrobial activity against Aspergillus ochraceus NRRL 3174 after 48 to 72 hrs by microbroth dilution method; assay type: functional
C6 [5] = assay: Cytotoxicity against rat C6 cells assessed as cell viability at 25 ug/ml after 24 hrs by MTT assay relative to control; assay type: functional; conditions: C6, 24 h, read-out: Activity
Escherichia coli = assay: Antimicrobial activity against Escherichia coli ATCC 25922 after 18 to 24 hrs by microbroth dilution method; assay type: functional
Penicillium chrysogenum = assay: Antimicrobial activity against Penicillium chrysogenum NRRL 1951 after 48 to 72 hrs by microbroth dilution method; assay type: functional
C6 [6] = assay: Inhibition of DNA synthesis in rat C6 cells assessed as BrdU incorporation after 24 hrs by ELISA; assay type: functional, cell-based
Aspergillus parasiticus = assay: Antimicrobial activity against Aspergillus parasiticus NRRL 465 after 48 to 72 hrs by microbroth dilution method; assay type: functional
Fusarium verticillioides = assay: Antimicrobial activity against Fusarium moniliforme NRRL 1866 after 48 to 72 hrs by microbroth dilution method; assay type: functional
Trichoderma harzianum = assay: Antimicrobial activity against Trichoderma harzianum NRRL 20565 after 48 to 72 hrs by microbroth dilution method; assay type: functional
Bacillus subtilis = assay: Antimicrobial activity against Bacillus subtilis NRS-744 after 18 to 24 hrs by microbroth dilution method; assay type: functional
Fusarium culmorum = assay: Antimicrobial activity against wild type Fusarium culmorum after 48 to 72 hrs by microbroth dilution method; assay type: functional
C6 [7] = assay: Cytotoxicity against rat C6 cells assessed as cell viability at 200 ug/ml after 24 hrs by MTT assay relative to control; assay type: functional; conditions: C6, 24 h, read-out: Activity
Fusarium solani = assay: Antimicrobial activity against Fusarium solani NRRL 13414 after 48 to 72 hrs by microbroth dilution method; assay type: functional
Micrococcus luteus = assay: Antimicrobial activity against Micrococcus luteus NRLL B-4375 after 18 to 24 hrs by microbroth dilution method; assay type: functional
Staphylococcus aureus = assay: Antimicrobial activity against Staphylococcus aureus NRRL B-767 after 18 to 24 hrs by microbroth dilution method; assay type: functional
NIH3T3 = assay: Cytotoxicity against mouse NIH/3T3 cells after 24 hrs by MTT assay; assay type: cell-based; conditions: NIH3T3, 24 h
C6 [8] = assay: Inhibition of DNA synthesis in rat C6 cells assessed as BrdU incorporation at IC50 after 24 hrs by ELISA; assay type: functional, cell-based
Candida albicans = assay: Antimicrobial activity against Candida albicans ATCC 22019 after 18 to 24 hrs by microbroth dilution method; assay type: functional
C6 [9] = assay: Cytotoxicity against rat C6 cells assessed as cell viability at 12 ug/ml after 24 hrs by MTT assay relative to control; assay type: functional; conditions: C6, 24 h, read-out: Activity

## Cc1nnc(SCC(=O)N/N=c2/scc(-c3ccc(F)cc3)n2-c2ccccc2)s1
Pseudomonas aeruginosa
  MIC: 250 µg/mL (≈ 546 µM)
C6 [1]
  viability at 6 µg/mL: 74.3%
C6 [2]
  viability at 100 µg/mL: 34.9%
C6 [3]
  IC50: 27.3 µg/mL (≈ 59.7 µM)
C6 [4]
  viability at 50 µg/mL: 37.4%
Listeria monocytogenes
  MIC: 250 µg/mL (≈ 546 µM)
Aspergillus ochraceus
  MIC: 250 µg/mL (≈ 546 µM)
C6 [5]
  viability at 25 µg/mL: 50.1%
Escherichia coli
  MIC: 250 µg/mL (≈ 546 µM)
Penicillium chrysogenum
  MIC: 250 µg/mL (≈ 546 µM)
C6 [6]
  inhibition: Dose-dependent effect
Aspergillus parasiticus
  MIC: 250 µg/mL (≈ 546 µM)
Fusarium verticillioides
  MIC: 250 µg/mL (≈ 546 µM)
Trichoderma harzianum
  MIC: 125 µg/mL (≈ 273 µM)
Bacillus subtilis
  MIC: 250 µg/mL (≈ 546 µM)
Fusarium culmorum
  MIC: 250 µg/mL (≈ 546 µM)
C6 [7]
  viability at 200 µg/mL: 26.5%
Fusarium solani
  MIC: 250 µg/mL (≈ 546 µM)
Micrococcus luteus
  MIC: 250 µg/mL (≈ 546 µM)
Staphylococcus aureus
  MIC: 250 µg/mL (≈ 546 µM)
NIH3T3
  IC50: 383 µg/mL (≈ 838 µM)
C6 [8]
  inhibition: Active
Candida albicans
  MIC: 250 µg/mL (≈ 546 µM)
C6 [9]
  viability at 12 µg/mL: 73.7%

## Cc1ccc(-c2cs/c(=N/NC(=O)CSc3nnc(C)s3)n2-c2ccccc2)cc1
Pseudomonas aeruginosa
  MIC: 250 µg/mL (≈ 551 µM)
C6 [1]
  viability at 6 µg/mL: 65.9%
C6 [2]
  viability at 100 µg/mL: 31.5%
C6 [3]
  IC50: 25.3 µg/mL (≈ 55.8 µM)
C6 [4]
  viability at 50 µg/mL: 40.6%
Listeria monocytogenes
  MIC: 250 µg/mL (≈ 551 µM)
Aspergillus ochraceus
  MIC: 250 µg/mL (≈ 551 µM)
C6 [5]
  viability at 25 µg/mL: 50.1%
Escherichia coli
  MIC: 250 µg/mL (≈ 551 µM)
Penicillium chrysogenum
  MIC: 250 µg/mL (≈ 551 µM)
C6 [6]
  inhibition: Dose-dependent effect
Aspergillus parasiticus
  MIC: 250 µg/mL (≈ 551 µM)
Fusarium verticillioides
  MIC: 250 µg/mL (≈ 551 µM)
Trichoderma harzianum
  MIC: 250 µg/mL (≈ 551 µM)
Bacillus subtilis
  MIC: 500 µg/mL (≈ 1100 µM)
Fusarium culmorum
  MIC: 250 µg/mL (≈ 551 µM)
C6 [7]
  viability at 200 µg/mL: 13.3%
Fusarium solani
  MIC: 250 µg/mL (≈ 551 µM)
Micrococcus luteus
  MIC: 250 µg/mL (≈ 551 µM)
Staphylococcus aureus
  MIC: 500 µg/mL (≈ 1100 µM)
NIH3T3
  IC50: 373 µg/mL (≈ 823 µM)
C6 [8]
  inhibition: Active
Candida albicans
  MIC: 250 µg/mL (≈ 551 µM)
C6 [9]
  viability at 12 µg/mL: 58.3%

## Cc1ccc(-c2cs/c(=N/NC(=O)CSc3nnnn3-c3ccccc3)n2-c2ccccc2)cc1
Pseudomonas aeruginosa
  MIC: 250 µg/mL (≈ 500 µM)
C6 [1]
  viability at 6 µg/mL: 66.8%
C6 [2]
  viability at 100 µg/mL: 28.5%
C6 [3]
  IC50: 14.7 µg/mL (≈ 29.4 µM)
C6 [4]
  viability at 50 µg/mL: 29.5%
Listeria monocytogenes
  MIC: 250 µg/mL (≈ 500 µM)
Aspergillus ochraceus
  MIC: 250 µg/mL (≈ 500 µM)
C6 [5]
  viability at 25 µg/mL: 38.8%
Escherichia coli
  MIC: 250 µg/mL (≈ 500 µM)
Penicillium chrysogenum
  MIC: 250 µg/mL (≈ 500 µM)
C6 [6]
  inhibition: Dose-dependent effect
Aspergillus parasiticus
  MIC: 250 µg/mL (≈ 500 µM)
Fusarium verticillioides
  MIC: 250 µg/mL (≈ 500 µM)
Trichoderma harzianum
  MIC: 125 µg/mL (≈ 250 µM)
Bacillus subtilis
  MIC: 250 µg/mL (≈ 500 µM)
Fusarium culmorum
  MIC: 125 µg/mL (≈ 250 µM)
C6 [7]
  viability at 200 µg/mL: 22.2%
Fusarium solani
  MIC: 250 µg/mL (≈ 500 µM)
Micrococcus luteus
  MIC: 250 µg/mL (≈ 500 µM)
Staphylococcus aureus
  MIC: 250 µg/mL (≈ 500 µM)
NIH3T3
  IC50: > 500 µg/mL
C6 [8]
  inhibition: Active
Candida albicans
  MIC: 250 µg/mL (≈ 500 µM)
C6 [9]
  viability at 12 µg/mL: 55.1%

## O=C(CSc1nnnn1-c1ccccc1)N/N=c1/scc(-c2ccc(Br)cc2)n1-c1ccccc1
Pseudomonas aeruginosa
  MIC: 250 µg/mL (≈ 443 µM)
C6 [1]
  viability at 6 µg/mL: 61.8%
C6 [2]
  viability at 100 µg/mL: 24.3%
C6 [3]
  IC50: 21 µg/mL (≈ 37.2 µM)
C6 [4]
  viability at 50 µg/mL: 32%
Listeria monocytogenes
  MIC: 250 µg/mL (≈ 443 µM)
Aspergillus ochraceus
  MIC: 250 µg/mL (≈ 443 µM)
C6 [5]
  viability at 25 µg/mL: 47.9%
Escherichia coli
  MIC: 250 µg/mL (≈ 443 µM)
Penicillium chrysogenum
  MIC: 250 µg/mL (≈ 443 µM)
C6 [6]
  inhibition: Dose-dependent effect
Aspergillus parasiticus
  MIC: 250 µg/mL (≈ 443 µM)
Fusarium verticillioides
  MIC: 250 µg/mL (≈ 443 µM)
Trichoderma harzianum
  MIC: 125 µg/mL (≈ 221 µM)
Bacillus subtilis
  MIC: 250 µg/mL (≈ 443 µM)
Fusarium culmorum
  MIC: 250 µg/mL (≈ 443 µM)
C6 [7]
  viability at 200 µg/mL: 20.4%
Fusarium solani
  MIC: 250 µg/mL (≈ 443 µM)
Micrococcus luteus
  MIC: 250 µg/mL (≈ 443 µM)
Staphylococcus aureus
  MIC: 250 µg/mL (≈ 443 µM)
NIH3T3
  IC50: 433 µg/mL (≈ 768 µM)
C6 [8]
  inhibition: Active
Candida albicans
  MIC: 125 µg/mL (≈ 221 µM)
C6 [9]
  viability at 12 µg/mL: 58.6%

## Cc1nnc(SCC(=O)N/N=c2/scc(-c3ccc(Cl)cc3)n2-c2ccccc2)s1
Pseudomonas aeruginosa
  MIC: 250 µg/mL (≈ 527 µM)
C6 [1]
  viability at 6 µg/mL: 82.8%
C6 [2]
  viability at 100 µg/mL: 34.1%
C6 [3]
  IC50: 28 µg/mL (≈ 59.1 µM)
C6 [4]
  viability at 50 µg/mL: 37.9%
Listeria monocytogenes
  MIC: 250 µg/mL (≈ 527 µM)
Aspergillus ochraceus
  MIC: 250 µg/mL (≈ 527 µM)
C6 [5]
  viability at 25 µg/mL: 53.3%
Escherichia coli
  MIC: 250 µg/mL (≈ 527 µM)
Penicillium chrysogenum
  MIC: 250 µg/mL (≈ 527 µM)
C6 [6]
  inhibition: Dose-dependent effect
Aspergillus parasiticus
  MIC: 250 µg/mL (≈ 527 µM)
Fusarium verticillioides
  MIC: 250 µg/mL (≈ 527 µM)
Trichoderma harzianum
  MIC: 125 µg/mL (≈ 264 µM)
Bacillus subtilis
  MIC: 250 µg/mL (≈ 527 µM)
Fusarium culmorum
  MIC: 250 µg/mL (≈ 527 µM)
C6 [7]
  viability at 200 µg/mL: 29%
Fusarium solani
  MIC: 250 µg/mL (≈ 527 µM)
Micrococcus luteus
  MIC: 250 µg/mL (≈ 527 µM)
Staphylococcus aureus
  MIC: 250 µg/mL (≈ 527 µM)
NIH3T3
  IC50: 253 µg/mL (≈ 534 µM)
C6 [8]
  inhibition: Active
Candida albicans
  MIC: 250 µg/mL (≈ 527 µM)
C6 [9]
  viability at 12 µg/mL: 76.6%
